The target in the assay is VEGFr2 (Rattus norvegicus, UniProt O08775). Put plainly: PET imaging of ^18F-ZD-G2 versus ^18FDG in MCT rat model of PAH. Type of assay: in vivo. The note with it: early stage of PAH (MCT-10 days and MCT-2 weeks); PET at 60 minutes after injection. As for the experimental part:
Images of ^18F-ZD-G2 probe and ^18FDG were compared. Rats exposed to monocrotaline were used to develop pulmonary arterial hypertension rat model (MCT), while healthier rats were used as a control group.
Images of ^18F-ZD-G2 probe and ^18FDG were compared.
A PET imaging study was further performed with ^18F-ZD-G2 using MCT rat model as previous described. Healthy rats were used as control. Clinically used ^18FDG PET imaging was also performed on both groups of […] following the same imaging protocol for comparison.

Sequence of VEGFr2 (O08775 20-1343): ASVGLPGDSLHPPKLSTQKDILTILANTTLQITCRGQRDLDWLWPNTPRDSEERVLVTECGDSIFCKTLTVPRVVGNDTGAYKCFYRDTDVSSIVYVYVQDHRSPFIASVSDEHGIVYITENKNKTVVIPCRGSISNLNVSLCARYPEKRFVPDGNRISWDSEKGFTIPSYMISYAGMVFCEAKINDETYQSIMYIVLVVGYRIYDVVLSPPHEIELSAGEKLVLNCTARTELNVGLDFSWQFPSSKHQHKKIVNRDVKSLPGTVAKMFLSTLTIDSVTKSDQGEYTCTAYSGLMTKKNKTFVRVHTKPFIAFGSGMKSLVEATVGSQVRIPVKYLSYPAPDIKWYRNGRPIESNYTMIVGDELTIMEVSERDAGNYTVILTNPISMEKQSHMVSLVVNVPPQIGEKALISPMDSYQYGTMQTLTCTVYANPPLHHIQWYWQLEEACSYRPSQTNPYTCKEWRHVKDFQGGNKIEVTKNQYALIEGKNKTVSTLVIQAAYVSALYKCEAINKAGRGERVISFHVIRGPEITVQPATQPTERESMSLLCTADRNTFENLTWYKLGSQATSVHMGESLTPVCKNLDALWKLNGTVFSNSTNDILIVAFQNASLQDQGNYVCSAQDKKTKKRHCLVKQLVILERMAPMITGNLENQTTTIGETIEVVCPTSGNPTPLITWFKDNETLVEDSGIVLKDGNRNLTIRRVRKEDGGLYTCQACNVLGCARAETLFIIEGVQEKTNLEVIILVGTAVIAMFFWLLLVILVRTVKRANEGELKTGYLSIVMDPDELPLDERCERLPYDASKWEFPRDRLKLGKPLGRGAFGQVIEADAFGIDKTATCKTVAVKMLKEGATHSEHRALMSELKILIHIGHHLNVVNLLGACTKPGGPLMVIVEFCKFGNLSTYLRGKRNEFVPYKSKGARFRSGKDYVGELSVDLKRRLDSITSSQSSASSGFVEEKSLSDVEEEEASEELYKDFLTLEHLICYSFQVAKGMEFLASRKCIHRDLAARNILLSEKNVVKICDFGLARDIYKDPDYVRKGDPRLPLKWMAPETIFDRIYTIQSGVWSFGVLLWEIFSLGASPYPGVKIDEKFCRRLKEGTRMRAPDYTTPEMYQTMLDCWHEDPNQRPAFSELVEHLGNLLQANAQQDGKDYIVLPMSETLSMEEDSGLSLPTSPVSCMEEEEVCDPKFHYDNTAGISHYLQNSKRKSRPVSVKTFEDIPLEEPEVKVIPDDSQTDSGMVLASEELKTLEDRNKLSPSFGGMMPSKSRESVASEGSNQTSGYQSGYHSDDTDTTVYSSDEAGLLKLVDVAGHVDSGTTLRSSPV

On to `OC[C@H]1OC(O)[C@H]([18F])[C@@H](O)[C@@H]1O` (stereo partly shown) [^18FDG], for which the “Lung uptake, MCT versus control” value was “no obvious difference”.

The record behind these values is patent publication US20260355361A1, “METHODS FOR DIAGNOSIS AND TREATMENT OF PULMONARY HYPERTENSION” (THE METHODIST HOSPITAL, priority 2022, published 2026).
